# Compound: CC(C)(C)c1cc(NC(=O)Nc2ccc(-c3cn4c(n3)sc3cc(OCCN5CCOCC5)ccc34)cc2)no1 [Quizartinib] + N=C(N)NC(=N)NCCc1ccccc1 [Phenformin] (partner 250 µM)
# Experiment: relative viability (nuclei count vs DMSO), 5 days (fraction); higher = more cells survive
# Settings: first compound 0.1 µM
# Summary of the method: (§1)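 Relative viability equals treated-well nuclei counts divided by vehicle-well nuclei counts. Counts came from 4× images of lung cancer cell lines grown in 1536-well plates for 5 days after pin-tool dosing on the day after seeding. Dosing used one drug alone or a fixed anchor-drug dose plus five library-drug doses (not always all listed) in √10 steps, and values are medians of duplicate plates.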
row,Cell Line,relative viability
1,A-427,0.189
2,NCI-H2342,0.688
3,LOU-NH91,0.862
4,NCI-H1666,0.54
5,NCI-H23,0.841
6,NCI-H838,0.329
7,NCI-H322M,0.744
8,NCI-H1793,0.37
9,NCI-H441,0.958
10,NCI-H727,0.469
11,SW 1573,0.367
12,201T,0.438
13,HCC-44,0.261
14,NCI-H1755,0.672
15,NCI-H1650,0.417
16,ChaGo-K-1,0.421
17,COR-L23,0.322
18,NCI-H2085,0.574
19,NCI-H460,0.028

# Compound: COCC[n+]1c2c(n(Cc3cnccn3)c1C)C(=O)c1ccccc1C2=O [YM155] + N=C(N)NC(=N)NCCc1ccccc1 [Phenformin] (partner 250 µM)
# Experiment: as above
# Settings: first compound 0.002 µM
# Summary of the method: as §1
row,Cell Line,relative viability
1,NCI-H1975,0.384
2,NCI-H1944,0.208
3,NCI-H2126,0.508
4,EMC-BAC-2,0.463
5,SK-LU-1,0.487
6,NCI-H2170,0.416
7,SW 900,0.638
8,NCI-H661,0.257
9,NCI-H358,0.325
10,CAL-12T,0.497
11,LK-2,0.356
12,HOP-62,0.566
13,PC-14,0.485
14,NCI-H1993,0.463
15,NCI-H2405,0.383
16,NCI-H3122,0.362
17,A-427,0.314
18,NCI-H2342,0.581

row,Cell Line,relative viability
1,LOU-NH91,0.647
2,NCI-H1666,0.567
3,NCI-H23,0.735
4,NCI-H838,0.54
5,NCI-H322M,0.775
6,NCI-H1793,0.348
7,NCI-H441,0.776
8,NCI-H727,0.532
9,SW 1573,0.365
10,201T,0.405
11,HCC-44,0.132
12,NCI-H1755,0.626
13,NCI-H1650,0.356
14,ChaGo-K-1,0.469
15,COR-L23,0.399
16,NCI-H2085,0.782
17,NCI-H460,0.518

# Same assay, conditions: first compound 0.006325 µM
row,Cell Line,relative viability
1,NCI-H1975,0.415
2,NCI-H1944,0.17
3,NCI-H2126,0.597
4,EMC-BAC-2,0.514
5,SK-LU-1,0.499
6,NCI-H2170,0.4
7,SW 900,0.642
8,NCI-H661,0.245
9,NCI-H358,0.315
10,CAL-12T,0.607
11,LK-2,0.571
12,HOP-62,0.648
13,PC-14,0.708
14,NCI-H1993,0.547
15,NCI-H2405,0.39
16,NCI-H3122,0.36
17,A-427,0.39
18,NCI-H2342,0.612

row,Cell Line,relative viability
1,LOU-NH91,0.783
2,NCI-H1666,0.599
3,NCI-H23,0.774
4,NCI-H838,0.625
5,NCI-H322M,0.837
6,NCI-H1793,0.371
7,NCI-H441,0.848
8,NCI-H727,0.522
9,SW 1573,0.305
10,201T,0.443
11,HCC-44,0.283
12,NCI-H1755,0.575
13,NCI-H1650,0.412
14,ChaGo-K-1,0.488
15,COR-L23,0.446
16,NCI-H2085,0.835
17,NCI-H460,0.531

# Same assay, conditions: first compound 0.02 µM
row,Cell Line,relative viability
1,NCI-H1975,0.406
2,NCI-H1944,0.202
3,NCI-H2126,0.555
4,EMC-BAC-2,0.542
5,SK-LU-1,0.566
6,NCI-H2170,0.413
7,SW 900,0.674
8,NCI-H661,0.264
9,NCI-H358,0.37
10,CAL-12T,0.658
11,LK-2,0.447
12,HOP-62,0.658
13,PC-14,0.668
14,NCI-H1993,0.488
15,NCI-H2405,0.423
16,NCI-H3122,0.384
17,A-427,0.365
18,NCI-H2342,0.584

row,Cell Line,relative viability
1,LOU-NH91,0.785
2,NCI-H1666,0.578
3,NCI-H23,0.729
4,NCI-H838,0.583
5,NCI-H322M,0.849
6,NCI-H1793,0.365
7,NCI-H441,0.763
8,NCI-H727,0.634
9,SW 1573,0.394
10,201T,0.492
11,HCC-44,0.248
12,NCI-H1755,0.602
13,NCI-H1650,0.484
14,ChaGo-K-1,0.519
15,COR-L23,0.451
16,NCI-H2085,0.847
17,NCI-H460,0.546

# Same assay, conditions: first compound 0.06325 µM
row,Cell Line,relative viability
1,NCI-H1975,0.395
2,NCI-H1944,0.205
3,NCI-H2126,0.522
4,EMC-BAC-2,0.568
5,SK-LU-1,0.588
6,NCI-H2170,0.408
7,SW 900,0.69
8,NCI-H661,0.288
9,NCI-H358,0.351
10,CAL-12T,0.642
11,LK-2,0.379
12,HOP-62,0.6
13,PC-14,0.554
14,NCI-H1993,0.512
15,NCI-H2405,0.404
16,NCI-H3122,0.364
17,A-427,0.333
18,NCI-H2342,0.65

row,Cell Line,relative viability
1,LOU-NH91,0.783
2,NCI-H1666,0.579
3,NCI-H23,0.634
4,NCI-H838,0.717
5,NCI-H322M,0.852
6,NCI-H1793,0.353
7,NCI-H441,0.865
8,NCI-H727,0.689
9,SW 1573,0.338
10,201T,0.475
11,HCC-44,0.202
12,NCI-H1755,0.657
13,NCI-H1650,0.557
14,ChaGo-K-1,0.578
15,COR-L23,0.393
16,NCI-H2085,0.725
17,NCI-H460,0.477
